Assay results: patent USRE42013E1, “Macrocyclic modulators of the ghrelin receptor” (Tranzyme Pharma Inc., priority 2003, dated 2010)
pEC50, pKi: −log10 of the molar value. Read-outs that look alike come from different tables or passages of the source.

Tests used:
[1] = molecular target: human ghrelin receptor (hGHS-R1a) (Homo sapiens, UniProt Q92847); assay: cell-based
Description: B. Aequorin Functional Assay (Ghrelin Receptor)
This cell line is typically constructed by transfection of the human ghrelin receptor into CHO-K1 cells co-expressing Gα16 and the mitochondrially targeted Aequorin (Ref #ES-WT-A5). • 1. […] Assay buffer: DMEM (Dulbecco's Modified Eagles Medium) containing 0.1% BSA (bovine serum albumin; pH 7.0). • 3. Coelenterazine (Molecular Probes, Leiden, The Netherlands). Final test concentrations (N=8) for compounds of the invention: 10, 1, 0.3, 0.1, 0.03, 0.01, 0.003, 0.001 μM. Compound Handling
Assay plates were then prepared by appropriate dilution in DMEM medium containing 0.1% BSA. Under these conditions, the maximal final DMSO concentration in the assay was <0.6%.
AequoScreen™ cells were collected from culture plates with Ca^2+ and Mg^2+-free phosphate buffered saline (PBS) supplemented with 5 mM EDTA, pelleted for 2 min at 1000×g, re-suspended in DMEM—Ham's F12 containing 0.1% BSA at a density of 5×10^6 cells/mL, and incubated O/N at rt in the presence of 5 μM coelenterazinc. After loading, cells were diluted with assay buffer to a concentration of 5×10^5 cells/mL.
For agonist testing, 50 μL of the cell suspension was mixed with 50 μL of the appropriate concentration of test compound or ghrelin (reference agonist) in 96-well plates (duplicate samples). Ghrelin (reference agonist) was tested at several concentrations concurrently with the test compounds in order to validate the experiment. The emission of light resulting from receptor activation in response to ghrelin or test compounds was recorded using the Hamamatsu FDSS 6000 reader (Hamamatsu Photonics K.K., Japan).
Analysis and Expression of Results
Results were expressed as Relative Light Units (RLU). […] EC50, Hill slope and % Emax values are reported.
Key Aspects of Method • 1. Assay performed on CHO-K1 cells expressing the transfected, cloned human ghrelin receptor (hGHS-R1a) and Gα16. • 2. Suspended cells incubated O/N with coelenterazine. • 3. Stimulation of hGHS-R1a activates Gα16, causing intercellular Ca2+ release which ultimately leads to the oxidation of coelenterazine and the emission of a quantitative luminescent signal. • 4. Ghrelin was used as the positive control. • 5.

[2] = molecular target: T1, human growth hormone secretagogue receptor (hGHS-R1a) (Homo sapiens, UniProt Q92847); assay: Competitive radioligand binding assay (ghrelin receptor), [125I]-ghrelin displacement; details: read-out: Ki
T1 construct: purchased PerkinElmer BioSignal #RBHGHSM, lot#1887; host or cells: HEK-293, stably transfected
T1 sequence (Q92847 whole entry): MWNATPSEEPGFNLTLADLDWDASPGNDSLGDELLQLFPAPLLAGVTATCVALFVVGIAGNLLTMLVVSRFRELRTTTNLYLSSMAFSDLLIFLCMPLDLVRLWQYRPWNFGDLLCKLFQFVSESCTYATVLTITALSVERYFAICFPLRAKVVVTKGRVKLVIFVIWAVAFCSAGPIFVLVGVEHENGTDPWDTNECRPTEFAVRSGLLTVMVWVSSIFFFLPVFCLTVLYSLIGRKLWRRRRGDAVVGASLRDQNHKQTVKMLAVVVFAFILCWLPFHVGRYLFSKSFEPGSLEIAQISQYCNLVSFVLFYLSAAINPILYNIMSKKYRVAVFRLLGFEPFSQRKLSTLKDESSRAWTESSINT
Method: The competitive binding assay at the human growth hormone secretagogue receptor (hGHS-R1a) was carried out analogously to assays described in the literature.
Multiscreen Harvest plates-GF/C (Millipore, #MAHFC1H60) • 4. […] Bottom seal (Millipore, #MATAH0P00) • 7. […] Binding Buffer: 25 mM Hepes (pH 7.4), 1 mM CaCl2, 5 mM MgCl2, 2.5 mM EDTA, 0.4% BSA Assay Volumes
Competition experiments were performed in a 300 μl filtration assay format. • 1. 220 μL of membranes diluted in binding buffer • 2. 40 μL of compound diluted in binding buffer • 3. […] Compound Handling
Compounds were provided frozen on dry ice at a stock concentration of 10 mM diluted in 100% DMSO and stored at −80° C. until the day of testing. On the test day, compounds were allowed to thaw at rt O/N and then diluted in assay buffer according to the desired test concentrations.
Plates were sealed with TopSeal-A, vortexed gently and incubated at rt for 30 min. The reaction was arrested by filtering samples through Multiscreen Harvest plates (pre-soaked in 0.5% polyethyleneimine) using a Tomtec Harvester, washed 9 times with 500 μL of cold 50 mM Tris-HCl (pH 7.4, 4° C.), and then plates were air-dried in a fumehood for 30 min. A bottom seal was applied to the plates prior to the addition of 25 μL of MicroScint-0 to each well. […] Results were expressed as counts per minute (cpm).
Data were analyzed by GraphPad Prism (GraphPad Software, San Diego, Calif.) using a variable slope non-linear regression analysis.
Compound structures for Tables 3A, 3B and 3D are presented with the various groups as defined for the general structure of formula I. For Tables 3B and 3D, in all entries, m, n and p are 0; X, Z1 and Z2 are each NH. For Table 3B, R1 is H for all entries. The tethers (T) are illustrated with the bonding to X and Z2 as indicated. The compounds themselves are shown for Table 3C.
• 1. […] Key Aspects of Method • 1. […] Results

[3] = Table 4, binding at human ghrelin receptor, TFA salts unless otherwise noted
[4] = binding activity at the human ghrelin receptor, [125I]-ghrelin displacement, hGHS-R1a/HEK-293 membranes
[5] = Table 3B, binding at human ghrelin receptor, [125I]-ghrelin displacement
[6] = Table 3D, binding at human ghrelin receptor, [125I]-ghrelin displacement

human ghrelin receptor (hGHS-R1a), sequence (Q92847 whole entry): as above

SMILES | pKi [2, 5] | also measured
CCCCC1NCCOc2ccccc2CCCNC(=O)C(Cc2ccccc2)NC(=O)CN(C)C1=O (stereo not drawn) [Compound 1] | – | pEC50 [1]: 6.00 to 7.00; pKi [2, 3]: 7.00 to 8.00; pKi [2, 4]: 7.00 to 8.00
CCCC1NCCOc2ccccc2CCCNC(=O)C(Cc2ccc(O)cc2)NC(=O)CN(C)C1=O (stereo not drawn) [compound 7] | – | pEC50 [1]: 7.00 to 9.00; pKi [2, 3]: 6.00 to 7.00; pKi [2, 4]: 5.00 to 7.00
CCCC1NCCOc2ccccc2C=CCNC(=O)C(Cc2ccccc2)NC(=O)CN(C)C1=O (stereo not drawn) [compound 11] | – | pEC50 [1]: 6.00 to 7.00; pKi [2, 3]: 7.00 to 8.00; pKi [2, 4]: 7.00 to 8.00
CCC(C)C1NCCOc2ccccc2CCCNC(=O)C(Cc2ccc(-c3ccccc3)cc2)NC(=O)C(C)N(C)C1=O (stereo not drawn) [compound 28] | – | pEC50 [1]: 7.00 to 9.00; pKi [2, 3]: 7.00 to 8.00; pKi [2, 4]: 7.00 to 8.00
CCC(C)C1NCc2ccccc2CCCCCNC(=O)C(Cc2ccccc2)NC(=O)C(C)N(C)C1=O (stereo not drawn) [compound 38] | – | pEC50 [1]: 6.00 to 7.00; pKi [2, 3]: 7.00 to 8.00; pKi [2, 4]: 7.00 to 8.00
CCCC1NCCOc2ccccc2C=CCNC(=O)C(Cc2ccccc2)NC(=O)C(C)N(C)C1=O (stereo not drawn) [compound 39] | – | pEC50 [1]: 6.00 to 7.00; pKi [2, 3]: 8.00 to 10.00; pKi [2, 4]: 7.00 to 8.00
C[C@@H]1C(=O)N[C@H](Cc2ccc(O)c(C(C)(C)C)c2)C(=O)NCCCc2ccccc2OCCN[C@@H](C2CC2)C(=O)N1C [compound 311] | > 7.00 | –
COc1ccc(CC2NC(=O)C(C)N(C)C(=O)C(C3CC3)NCCOc3ccccc3CCCNC2=O)cc1OC (stereo not drawn) [compound 323] | 5.00 to 7.00 | –
CC1C(=O)NC(Cc2c[nH]c3ccccc23)C(=O)NCCCc2ccccc2OCCNC(C2CC2)C(=O)N1C (stereo not drawn) [compound 324] | > 7.00 | –
CCC(C)C1NCCOc2ccccc2C=CCNC(=O)C(Cc2cccc(Br)c2)NC(=O)C2(CCCC2)NC1=O (stereo not drawn) [compound 326] | > 7.00 | –
CCC(C)C1NCCOc2ccccc2C=CCNC(=O)C(Cc2cccc(C#N)c2)NC(=O)C2(CCCC2)NC1=O (stereo not drawn) [compound 329] | > 7.00 | –
CCC(C)C1NCCOc2ccccc2C=CCNC(=O)C(Cc2ccsc2)NC(=O)C2(CCCC2)NC1=O (stereo not drawn) [compound 333] | 5.00 to 7.00 | –
COC(C)C1NCCOc2ccccc2CCCNC(=O)C(Cc2ccc(F)cc2)NC(=O)C(C)N(C)C1=O (stereo not drawn) [compound 335] | > 7.00 | –
O=C1NC2(CCCC2)C(=O)NC(Cc2cccc(Cl)c2)C(=O)NCC=Cc2ccccc2OCCNC1Cc1ccsc1 (stereo not drawn) [compound 341] | > 7.00 | –
N#Cc1ccccc1CC1NCCOc2ccccc2C=CCNC(=O)C(Cc2cccc(Cl)c2)NC(=O)C2(CCCC2)NC1=O (stereo not drawn) [compound 342] | 5.00 to 7.00 | –
COCC1NCCOc2ccccc2C=CCNC(=O)C(Cc2cccc(Cl)c2)NC(=O)C2(CCCC2)NC1=O (stereo not drawn) [compound 344] | 5.00 to 7.00 | –
CC1C(=O)NC(Cc2ccc(F)cc2)C(=O)NCCCc2cc(F)ccc2OCCNC(C2CC2)C(=O)N1C (stereo not drawn) [compound 355] | > 7.00 | –
CC1C(=O)NC(Cc2ccc(F)cc2)C(=O)NCCCc2cc(C(F)(F)F)ccc2OCCNC(C2CC2)C(=O)N1C (stereo not drawn) [compound 356] | 5.00 to 7.00 | –
CC1C(=O)NC(Cc2ccc(F)cc2)C(=O)NCCCc2ccc(NS(C)(=O)=O)cc2OCCNC(C2CC2)C(=O)N1C (stereo not drawn) [compound 357] | 5.00 to 7.00 | –
CCC(C)C1NCCOc2ccccc2C(C)(C)CCNC(=O)C(Cc2cccc(Cl)c2)NC(=O)C2(CCCC2)NC1=O (stereo not drawn) [compound 359] | 5.00 to 7.00 | –
CCC(C)C1NCCOCC=CCCNC(=O)C(Cc2cccc(Cl)c2)NC(=O)C2(CCCC2)NC1=O (stereo not drawn) [compound 360] | 5.00 to 7.00 | –
CCC(C)C1NCCCc2ccccc2C=CCCNC(=O)C(Cc2cccc(Cl)c2)NC(=O)C2(CCCC2)NC1=O (stereo not drawn) [compound 361] | 5.00 to 7.00 | –
CCC(C)C1NCc2ccccc2CCCCCNC(=O)C(Cc2cccc(Cl)c2)NC(=O)C2(CCCC2)NC1=O (stereo not drawn) [compound 362] | 5.00 to 7.00 | –
CCC(C)C1NCCCCCCCCNC(=O)C(Cc2cccc(Cl)c2)NC(=O)C2(CCCC2)NC1=O (stereo not drawn) [compound 363] | 5.00 to 7.00 | pKi [2, 3]: 6.00 to 7.00
CCC(C)C1NCCCCCCNC(=O)C(Cc2cccc(Cl)c2)NC(=O)C2(CCCC2)NC1=O (stereo not drawn) [compound 365] | 5.00 to 7.00 | –

SMILES | pKi [2, 5] | also measured
CCC(C)C1NCCCCCCCNC(=O)C(Cc2cccc(Cl)c2)NC(=O)C2(CCCC2)NC1=O (stereo not drawn) [compound 366] | 5.00 to 7.00 | –
CCC(C)C1NCCOCCCCCNC(=O)C(Cc2cccc(Cl)c2)NC(=O)C2(CCCC2)NC1=O (stereo not drawn) [compound 370] | 5.00 to 7.00 | –
CCC(C)C1NCCCc2ccccc2CCCCNC(=O)C(Cc2cccc(Cl)c2)NC(=O)C2(CCCC2)NC1=O (stereo not drawn) [compound 371] | > 7.00 | –
CC1C(=O)NC(Cc2ccc(F)cc2)C(=O)NCCCc2cc(Cl)ccc2OCCNC(C2CC2)C(=O)N1C (stereo not drawn) [compound 373] | > 7.00 | –
CC1CCNC(=O)C(Cc2ccc(F)cc2)NC(=O)C(C)N(C)C(=O)C(C2CC2)NCCOc2ccccc21 (stereo not drawn) [compound 375] | 5.00 to 7.00 | –
CC1CNC(=O)C(Cc2ccc(F)cc2)NC(=O)C(C)N(C)C(=O)C(C2CC2)NCCOc2ccccc2C1 (stereo not drawn) [compound 376] | 5.00 to 7.00 | –
CC1C(=O)NC(Cc2ccc(F)cc2)C(=O)NCCOc2cccc(c2)OCCNC(C2CC2)C(=O)N1C (stereo not drawn) [compound 377] | 5.00 to 7.00 | –
CC1C(=O)NC(Cc2ccc(F)cc2)C(=O)NCCC(C)(C)c2ccccc2OCCNC(C2CC2)C(=O)N1C (stereo not drawn) [compound 378] | 5.00 to 7.00 | –
CC1C(=O)NC(Cc2ccc(F)cc2)C(=O)NCC2CC2c2ccccc2OCCNC(C2CC2)C(=O)N1C (stereo not drawn) [compound 379] | > 7.00 | –
CCC(C)C1NCCOc2ccccc2C=CCNC(=O)C(Cc2cccc(Cl)c2)NC(=O)C2(CCCC2)NC1=O (stereo not drawn) [compound 380] | 5.00 to 7.00 | –
CCC(C)C1NCCOc2ccccc2C#CCNC(=O)C(Cc2cccc(Cl)c2)NC(=O)C2(CCCC2)NC1=O (stereo not drawn) [compound 381] | > 7.00 | –
CCC(C)C1NCCOc2cc(F)ccc2CCCNC(=O)C(Cc2cccc(Cl)c2)NC(=O)C2(CCCC2)NC1=O (stereo not drawn) [compound 383] | 5.00 to 7.00 | –
CCC(C)C1NCCOc2ccc(Cl)cc2CCCNC(=O)C(Cc2cccc(Cl)c2)NC(=O)C2(CCCC2)NC1=O (stereo not drawn) [compound 384] | 5.00 to 7.00 | –
CCC(C)C1NCCOc2cccnc2CCCNC(=O)C(Cc2cccc(Cl)c2)NC(=O)C2(CCCC2)NC1=O (stereo not drawn) [compound 385] | 5.00 to 7.00 | –
CCC(C)C1NCCOc2ccccc2C(C)CCNC(=O)C(Cc2cccc(Cl)c2)NC(=O)C2(CCCC2)NC1=O (stereo not drawn) [compound 386] | 5.00 to 7.00 | –
CCC(C)C1NCCOc2ccccc2C2CC2CNC(=O)C(Cc2cccc(Cl)c2)NC(=O)C2(CCCC2)NC1=O (stereo not drawn) [compound 387] | 5.00 to 7.00 | –
CCC(C)C1NCCCNCCNC(=O)C(Cc2cccc(Cl)c2)NC(=O)C2(CCCC2)NC1=O (stereo not drawn) [compound 390] | 5.00 to 7.00 | –
CCC(C)C1NCCOc2ccccc2CC(C)CNC(=O)C(Cc2cccc(Cl)c2)NC(=O)C2(CCCC2)NC1=O (stereo not drawn) [compound 392] | > 7.00 | –
CCC(C)C1NCCOCCOCCNC(=O)C(Cc2cccc(Cl)c2)NC(=O)C2(CCCC2)NC1=O (stereo not drawn) [compound 393] | 5.00 to 7.00 | –
CC1C(=O)NC(Cc2ccc(F)cc2)C(=O)NCCCCCOCCNC(C2CC2)C(=O)N1C (stereo not drawn) [compound 398] | 5.00 to 7.00 | –
CC1C(=O)NC(Cc2ccc(F)cc2)C(=O)NCC=Cc2ccccc2OCCNC(C2CC2)C(=O)N1C (stereo not drawn) [compound 400] | > 7.00 | –
CC1CNC(C2CC2)C(=O)N(C)C(C)C(=O)NC(Cc2ccccc2)C(=O)NCCCc2ccc(F)cc2O1 (stereo not drawn) [compound 435] | – | pKi [2, 6]: 7.00 to 8.00
CC(C)CC1NCC(C)Oc2ccccc2CCCNC(=O)C(Cc2cccc(Cl)c2)NC(=O)C2(CCCC2)NC1=O (stereo not drawn) [compound 438] | – | pKi [2, 6]: 5.00 to 6.00
CCC(C)C1NCCOc2ccccc2CCCNC(=O)C(Cc2ccc(F)cc2)NC(=O)C(COCc2ccccc2)N(C)C1=O (stereo not drawn) [compound 440] | – | pKi [2, 6]: 5.00 to 7.00
CCC(C)C1NCCCCCNC(=O)C(Cc2cccc(Cl)c2)NC(=O)C2(CCCC2)NC1=O (stereo not drawn) [compound 447] | – | pKi [2, 6]: 5.00 to 6.00
